As a reminder, the Kd is the equilibrium constant for the complex coming apart.

Experimental findings from ChEMBL document CHEMBL3991601, “The target landscape of clinical kinase drugs” (Science, 2017) are described below.

Calls of active or inactive are those of the source. Cut-off read from the data, not from the text of the source, for most assays here: actives have a measured Kd and inactives only a lower limit.

The target in experiment [1] is Glycogen synthase kinase-3 beta (Homo sapiens, UniProt P49841).
Glycogen synthase kinase-3 beta, sequence (P49841 whole entry): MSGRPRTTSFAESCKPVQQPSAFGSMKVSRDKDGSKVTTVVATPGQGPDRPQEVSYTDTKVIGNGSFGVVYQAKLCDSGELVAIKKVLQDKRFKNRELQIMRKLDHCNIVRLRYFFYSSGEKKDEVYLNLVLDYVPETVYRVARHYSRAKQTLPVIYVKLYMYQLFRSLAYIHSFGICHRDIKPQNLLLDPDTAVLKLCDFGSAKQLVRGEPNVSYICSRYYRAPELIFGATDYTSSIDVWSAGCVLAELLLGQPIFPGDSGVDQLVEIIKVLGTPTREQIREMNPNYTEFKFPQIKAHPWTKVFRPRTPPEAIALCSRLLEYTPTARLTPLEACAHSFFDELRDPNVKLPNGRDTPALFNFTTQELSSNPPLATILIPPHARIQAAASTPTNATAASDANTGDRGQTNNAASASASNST
The target in experiment [2] is Inosine-5'-monophosphate dehydrogenase 2 (Homo sapiens, UniProt P12268).
The target of experiment [3] is Protein-tyrosine kinase 6 (Homo sapiens, UniProt Q13882).
Protein-tyrosine kinase 6, sequence (Q13882 whole entry): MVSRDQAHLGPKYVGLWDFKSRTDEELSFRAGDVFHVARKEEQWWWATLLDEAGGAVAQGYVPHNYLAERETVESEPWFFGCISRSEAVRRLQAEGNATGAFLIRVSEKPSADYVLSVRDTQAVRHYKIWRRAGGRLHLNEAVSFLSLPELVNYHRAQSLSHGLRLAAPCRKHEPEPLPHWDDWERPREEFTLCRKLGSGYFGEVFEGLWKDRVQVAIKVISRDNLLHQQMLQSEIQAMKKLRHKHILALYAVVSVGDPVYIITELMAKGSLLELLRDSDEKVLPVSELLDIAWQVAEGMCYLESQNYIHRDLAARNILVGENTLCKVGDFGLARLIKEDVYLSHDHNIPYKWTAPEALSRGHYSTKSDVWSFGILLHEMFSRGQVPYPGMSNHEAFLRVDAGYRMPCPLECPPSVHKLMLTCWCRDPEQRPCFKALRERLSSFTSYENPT
Experiment [4] addresses DNA topoisomerase 2-alpha (Homo sapiens, UniProt P11388).
Experiment [5] addresses Serine/threonine-protein kinase 16 (Homo sapiens, UniProt O75716).
Experiment [6] concerns the target T1, Serine/threonine-protein kinase NLK (Homo sapiens, UniProt Q9UBE8).
T1 sequence (Q9UBE8 whole entry): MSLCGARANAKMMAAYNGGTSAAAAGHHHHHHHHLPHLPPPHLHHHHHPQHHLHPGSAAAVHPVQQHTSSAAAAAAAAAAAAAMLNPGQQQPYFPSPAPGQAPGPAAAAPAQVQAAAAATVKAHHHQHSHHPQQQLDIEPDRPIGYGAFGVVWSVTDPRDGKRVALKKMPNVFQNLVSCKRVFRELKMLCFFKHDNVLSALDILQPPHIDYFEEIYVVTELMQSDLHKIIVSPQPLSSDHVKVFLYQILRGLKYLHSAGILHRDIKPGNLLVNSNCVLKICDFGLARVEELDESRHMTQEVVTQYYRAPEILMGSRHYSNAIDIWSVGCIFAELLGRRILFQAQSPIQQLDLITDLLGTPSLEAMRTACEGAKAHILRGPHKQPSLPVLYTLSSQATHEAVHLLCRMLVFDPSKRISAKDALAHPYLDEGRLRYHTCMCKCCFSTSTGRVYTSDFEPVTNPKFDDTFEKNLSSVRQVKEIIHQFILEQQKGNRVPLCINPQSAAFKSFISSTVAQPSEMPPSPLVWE

For the next experiment, the target named is Ephrin type-A receptor 2 (Homo sapiens, UniProt P29317).
Ephrin type-A receptor 2, sequence (P29317 whole entry): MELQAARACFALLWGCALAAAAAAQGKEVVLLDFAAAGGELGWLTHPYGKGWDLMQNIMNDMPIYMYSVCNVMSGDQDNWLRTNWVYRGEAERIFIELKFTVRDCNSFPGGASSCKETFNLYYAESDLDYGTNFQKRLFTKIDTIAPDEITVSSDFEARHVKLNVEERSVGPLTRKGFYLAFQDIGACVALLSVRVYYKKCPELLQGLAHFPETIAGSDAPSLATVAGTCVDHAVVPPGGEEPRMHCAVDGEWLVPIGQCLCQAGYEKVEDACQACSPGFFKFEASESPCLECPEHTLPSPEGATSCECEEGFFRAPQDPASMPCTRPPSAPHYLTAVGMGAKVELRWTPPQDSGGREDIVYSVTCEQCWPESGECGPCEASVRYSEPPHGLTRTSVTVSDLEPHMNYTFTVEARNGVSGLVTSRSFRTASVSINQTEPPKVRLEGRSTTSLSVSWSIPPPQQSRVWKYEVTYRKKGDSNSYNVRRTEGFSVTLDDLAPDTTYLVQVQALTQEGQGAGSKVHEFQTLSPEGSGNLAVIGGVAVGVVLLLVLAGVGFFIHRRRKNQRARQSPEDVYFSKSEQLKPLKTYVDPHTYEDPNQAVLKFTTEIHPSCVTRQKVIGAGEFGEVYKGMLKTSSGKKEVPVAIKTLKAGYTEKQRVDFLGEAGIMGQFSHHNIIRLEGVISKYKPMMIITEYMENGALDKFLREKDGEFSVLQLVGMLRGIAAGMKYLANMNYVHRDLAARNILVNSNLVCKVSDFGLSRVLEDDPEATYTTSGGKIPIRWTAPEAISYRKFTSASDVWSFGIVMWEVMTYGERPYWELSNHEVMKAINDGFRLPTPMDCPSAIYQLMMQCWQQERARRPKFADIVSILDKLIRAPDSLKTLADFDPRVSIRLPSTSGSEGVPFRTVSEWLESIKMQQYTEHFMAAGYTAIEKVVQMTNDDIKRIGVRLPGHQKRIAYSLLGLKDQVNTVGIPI
Experiment [7] addresses T2, ATP-dependent 6-phosphofructokinase, platelet type (Homo sapiens, UniProt Q01813).
T2 sequence (Q01813 whole entry): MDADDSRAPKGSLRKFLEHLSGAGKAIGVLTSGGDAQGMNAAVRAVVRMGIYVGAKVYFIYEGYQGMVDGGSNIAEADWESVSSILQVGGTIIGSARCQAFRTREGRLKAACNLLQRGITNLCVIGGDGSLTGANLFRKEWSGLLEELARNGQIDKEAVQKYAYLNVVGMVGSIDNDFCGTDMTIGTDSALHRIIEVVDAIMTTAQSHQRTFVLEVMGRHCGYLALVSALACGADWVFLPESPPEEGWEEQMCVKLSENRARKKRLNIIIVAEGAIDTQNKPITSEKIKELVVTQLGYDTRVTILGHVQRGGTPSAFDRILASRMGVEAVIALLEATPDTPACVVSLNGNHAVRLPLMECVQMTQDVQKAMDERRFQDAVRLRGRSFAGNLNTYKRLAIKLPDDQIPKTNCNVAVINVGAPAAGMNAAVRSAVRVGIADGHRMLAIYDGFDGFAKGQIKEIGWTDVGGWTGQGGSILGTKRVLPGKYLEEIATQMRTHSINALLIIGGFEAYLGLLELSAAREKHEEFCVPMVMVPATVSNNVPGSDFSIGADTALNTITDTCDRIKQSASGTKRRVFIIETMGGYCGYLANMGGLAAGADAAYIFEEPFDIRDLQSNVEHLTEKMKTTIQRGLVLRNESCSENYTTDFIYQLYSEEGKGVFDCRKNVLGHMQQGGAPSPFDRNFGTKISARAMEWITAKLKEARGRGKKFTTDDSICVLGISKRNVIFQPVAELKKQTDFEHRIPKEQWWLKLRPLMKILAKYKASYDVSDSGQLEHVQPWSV

The target of another experiment is T3, Ephrin type-B receptor 2 (Homo sapiens, UniProt P29323).
T3 sequence (P29323 whole entry): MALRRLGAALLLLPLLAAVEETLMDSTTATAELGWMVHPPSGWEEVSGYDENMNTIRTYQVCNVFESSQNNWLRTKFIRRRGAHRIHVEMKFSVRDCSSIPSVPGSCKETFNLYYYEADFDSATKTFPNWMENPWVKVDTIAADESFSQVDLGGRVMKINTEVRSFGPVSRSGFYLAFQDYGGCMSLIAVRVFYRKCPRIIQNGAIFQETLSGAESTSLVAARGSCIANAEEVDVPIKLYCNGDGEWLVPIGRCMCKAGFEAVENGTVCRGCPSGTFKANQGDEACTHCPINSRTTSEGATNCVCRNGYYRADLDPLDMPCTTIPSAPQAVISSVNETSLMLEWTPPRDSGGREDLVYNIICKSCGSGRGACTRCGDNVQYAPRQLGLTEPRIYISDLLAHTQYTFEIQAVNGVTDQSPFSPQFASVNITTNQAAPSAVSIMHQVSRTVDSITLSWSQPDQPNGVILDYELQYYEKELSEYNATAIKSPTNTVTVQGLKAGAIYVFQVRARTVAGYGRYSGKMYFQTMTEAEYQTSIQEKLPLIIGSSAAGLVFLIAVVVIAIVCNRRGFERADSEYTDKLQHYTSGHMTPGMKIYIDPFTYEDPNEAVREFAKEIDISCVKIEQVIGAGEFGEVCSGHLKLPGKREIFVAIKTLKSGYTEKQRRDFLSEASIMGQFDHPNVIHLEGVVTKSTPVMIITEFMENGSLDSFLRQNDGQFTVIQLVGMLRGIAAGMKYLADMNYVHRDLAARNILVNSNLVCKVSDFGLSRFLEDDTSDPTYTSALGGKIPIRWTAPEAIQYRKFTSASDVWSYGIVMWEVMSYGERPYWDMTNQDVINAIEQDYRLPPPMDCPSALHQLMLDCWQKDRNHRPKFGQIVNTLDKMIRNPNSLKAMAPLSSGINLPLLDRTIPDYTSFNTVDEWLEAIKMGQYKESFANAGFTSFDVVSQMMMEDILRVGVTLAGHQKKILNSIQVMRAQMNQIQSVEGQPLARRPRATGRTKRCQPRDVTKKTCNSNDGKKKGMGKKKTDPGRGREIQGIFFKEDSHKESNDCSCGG
Note: in the data inactive means no Kd found up to 30 µM.

DNA topoisomerase 2-alpha, sequence (P11388 whole entry): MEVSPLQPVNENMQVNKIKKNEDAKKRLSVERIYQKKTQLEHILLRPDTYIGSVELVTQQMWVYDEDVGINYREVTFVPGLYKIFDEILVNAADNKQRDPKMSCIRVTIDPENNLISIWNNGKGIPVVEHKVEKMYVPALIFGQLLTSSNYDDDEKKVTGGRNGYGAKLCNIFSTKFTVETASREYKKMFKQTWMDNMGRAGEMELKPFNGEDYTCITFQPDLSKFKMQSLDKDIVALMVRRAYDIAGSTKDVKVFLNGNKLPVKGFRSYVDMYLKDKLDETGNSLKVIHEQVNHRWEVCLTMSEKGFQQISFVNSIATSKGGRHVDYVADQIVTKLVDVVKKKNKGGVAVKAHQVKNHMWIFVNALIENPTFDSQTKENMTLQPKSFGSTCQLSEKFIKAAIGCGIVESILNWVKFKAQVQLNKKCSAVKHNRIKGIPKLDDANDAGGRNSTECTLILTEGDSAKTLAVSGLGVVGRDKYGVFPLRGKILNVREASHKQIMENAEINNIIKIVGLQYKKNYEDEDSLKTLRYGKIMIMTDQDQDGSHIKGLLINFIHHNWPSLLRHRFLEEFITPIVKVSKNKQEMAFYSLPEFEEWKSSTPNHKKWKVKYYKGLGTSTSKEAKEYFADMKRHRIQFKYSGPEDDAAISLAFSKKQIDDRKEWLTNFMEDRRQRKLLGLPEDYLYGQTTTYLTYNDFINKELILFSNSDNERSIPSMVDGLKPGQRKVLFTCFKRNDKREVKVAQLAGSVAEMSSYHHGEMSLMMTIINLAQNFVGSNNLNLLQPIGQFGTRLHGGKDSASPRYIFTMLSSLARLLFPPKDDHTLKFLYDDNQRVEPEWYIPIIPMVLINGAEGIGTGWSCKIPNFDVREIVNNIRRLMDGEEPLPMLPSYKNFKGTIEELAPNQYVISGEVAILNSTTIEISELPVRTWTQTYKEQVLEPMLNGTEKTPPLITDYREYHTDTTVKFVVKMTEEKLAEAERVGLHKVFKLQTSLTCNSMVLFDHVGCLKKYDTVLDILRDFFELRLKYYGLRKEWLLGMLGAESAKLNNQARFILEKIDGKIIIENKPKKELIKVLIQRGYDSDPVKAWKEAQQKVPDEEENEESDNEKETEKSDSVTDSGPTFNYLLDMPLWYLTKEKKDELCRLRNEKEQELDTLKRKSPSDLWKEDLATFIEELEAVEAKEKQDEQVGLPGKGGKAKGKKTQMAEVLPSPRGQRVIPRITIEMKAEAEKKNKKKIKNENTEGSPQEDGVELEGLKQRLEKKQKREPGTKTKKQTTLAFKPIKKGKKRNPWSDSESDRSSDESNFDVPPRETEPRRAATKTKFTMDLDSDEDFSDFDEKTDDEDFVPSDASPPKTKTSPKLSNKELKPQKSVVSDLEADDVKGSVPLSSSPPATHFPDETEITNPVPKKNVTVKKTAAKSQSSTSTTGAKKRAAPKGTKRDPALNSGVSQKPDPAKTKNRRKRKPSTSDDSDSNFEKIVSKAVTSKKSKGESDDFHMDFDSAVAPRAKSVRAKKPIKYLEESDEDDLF
Serine/threonine-protein kinase 16, sequence (O75716 whole entry): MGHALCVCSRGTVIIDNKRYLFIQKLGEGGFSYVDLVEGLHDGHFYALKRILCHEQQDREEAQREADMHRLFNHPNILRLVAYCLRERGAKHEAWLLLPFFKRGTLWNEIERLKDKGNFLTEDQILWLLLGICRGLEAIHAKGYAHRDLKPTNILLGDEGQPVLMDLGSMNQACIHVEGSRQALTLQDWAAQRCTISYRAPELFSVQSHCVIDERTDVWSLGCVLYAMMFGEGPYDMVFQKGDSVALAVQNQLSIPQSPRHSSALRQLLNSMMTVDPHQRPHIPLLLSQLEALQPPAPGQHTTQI

Regarding `COc1cc2nccc(Oc3ccc(NC(=O)NC4CC4)c(Cl)c3)c2cc1C(N)=O` [LENVATINIB], the Kd in experiment [1] is > 30 µM (inactive); in [2], > 30 µM (inactive); in [3] it was 0.173 µM; in [4], > 30 µM (inactive); in experiment [5], > 30 µM (inactive); in experiment [6] it was > 30 µM (inactive). For the same compound, the Kd (on Ephrin type-A receptor 2; in [7]; at Ephrin type-B receptor 2) was > 30 µM (inactive) in each case.

For the compound `CO[C@H]1C[C@@H]2CC[C@@H](C)[C@@](O)(O2)C(=O)C(=O)N2CCCC[C@H]2C(=O)O[C@H]([C@H](C)C[C@@H]2CC[C@@H](OCCO)[C@H](OC)C2)CC(=O)[C@H](C)/C=C(\C)[C@@H](O)[C@@H](OC)C(=O)[C@H](C)C[C@H](C)/C=C/C=C/C=C/1C` [EVEROLIMUS], the Kd in experiment [1], in experiment [2], in [3], in experiment [4], in experiment [5] and in experiment [6] was > 30 µM (inactive) each time. Further, the Kd (on Ephrin type-A receptor 2; in [7]; on Ephrin type-B receptor 2) was > 30 µM (inactive) each time.

Take `O=C1NC(=O)/C(=C/c2ccc3nccc(-c4ccncc4)c3c2)S1` [GSK-1059615]: the Kd (in [1]; in experiment [3]; in experiment [4]; in [5]; on Ephrin type-A receptor 2; in experiment [7]) was > 30 µM (inactive) each time. Further, the Kd on Ephrin type-B receptor 2 is > 30 µM (inactive).

As to `C=CC(=O)N1CCC(Oc2cc3c(Nc4ccc(Cl)c(Cl)c4F)ncnc3cc2OC)CC1` [POZIOTINIB], the Kd (in experiment [1]; in experiment [3]; in [4]; in experiment [5]; in experiment [6]; at Ephrin type-A receptor 2) was > 30 µM (inactive) in each case. The figures for the Kd (in experiment [7]; on Ephrin type-B receptor 2) were > 30 µM (inactive) and 2.24 µM (active), respectively.

Take `Cn1cc(-c2ccc3nnc(C(F)(F)c4ccc5ncccc5c4)n3n2)cn1` [JNJ-38877605]: the Kd (in experiment [1]; in [3]; in [4]; in [5]; in [6]; on Ephrin type-A receptor 2) was > 30 µM (inactive) throughout. Further, the Kd (in [7]; on Ephrin type-B receptor 2) was > 30 µM (inactive) in each case.

Consider `COc1cc(N2CCC(N3CCN(C)CC3)CC2)ccc1Nc1ncnc(Nc2ccccc2S(=O)(=O)C(C)C)n1` [ASP-3026], for which the Kd in [1] is > 30 µM (inactive); in experiment [3], 0.061 µM (active); in experiment [4] it was > 30 µM (inactive); in experiment [5] it was > 30 µM (inactive); in experiment [6] it was > 30 µM (inactive); at Ephrin type-A receptor 2 it was 1.25 µM (active). Besides, the Kd (in [7]; on Ephrin type-B receptor 2) was > 30 µM (inactive) each time.

For the compound `C[C@@H](Nc1cc(F)cc(F)c1)c1cc(C(=O)N(C)C)cc2c(=O)cc(N3CCOCC3)oc12` [AZD-8186], the Kd (in experiment [1]; in [3]; in experiment [4]; in experiment [5]; in experiment [6]; on Ephrin type-A receptor 2) was > 30 µM (inactive) in each case. Besides, the Kd (in experiment [7]; at Ephrin type-B receptor 2) was > 30 µM (inactive) throughout.

On to `O=C(O)[C@]1(Cc2cccc(Nc3nccs3)n2)CC[C@@H](Oc2cccc(Cl)c2F)CC1` [MK-5108], for which the Kd was > 30 µM (inactive) in experiment [1]; > 30 µM (inactive) in experiment [2]; 0.841 µM (active) in experiment [3]; > 30 µM (inactive) in [4]; > 30 µM (inactive) in experiment [5]; > 30 µM (inactive) in experiment [6]. Further, the Kd (in experiment [7]; at Ephrin type-B receptor 2) was > 30 µM (inactive) in each case.

Consider `C1=C/COCc2cc(ccc2OCCN2CCCC2)Nc2nccc(n2)-c2cccc(c2)COC/1` [PACRITINIB], for which the Kd in [1] was > 30 µM (inactive); in [2], > 30 µM (inactive); in experiment [3], > 30 µM (inactive); in experiment [5] it was 1.87 µM (active); in experiment [6] it was > 30 µM (inactive); on Ephrin type-A receptor 2, > 30 µM (inactive). The Kd (in experiment [7]; on Ephrin type-B receptor 2) was > 30 µM (inactive) throughout.

As for `CN(C)C(=O)c1cc2cnc(Nc3ccc(N4CCNCC4)cn3)nc2n1C1CCCC1` [RIBOCICLIB], the Kd (in experiment [1]; in [3]; in experiment [4]; in experiment [5]; in experiment [6]; at Ephrin type-A receptor 2) was > 30 µM (inactive) in each case. Further, the Kd (in experiment [7]; at Ephrin type-B receptor 2) was > 30 µM (inactive) in each case.

With `CNC(=O)CN1CCC(Oc2cc3c(Nc4cccc(Cl)c4F)ncnc3cc2OC)CC1` [SAPITINIB], the Kd is > 30 µM (inactive) in experiment [1]; > 30 µM (inactive) in experiment [2]; 2.2 µM (active) in [3]; > 30 µM (inactive) in experiment [5]; > 30 µM (inactive) in experiment [6]; 8.2 µM on Ephrin type-A receptor 2. Further, the Kd was > 30 µM (inactive) in experiment [7] and 2.28 µM on Ephrin type-B receptor 2.

For `CN1N=C(N)c2cn([C@@H]3O[C@H](COP(=O)(O)O)[C@@H](O)[C@H]3O)c3ncnc1c23` [TRICIRIBINE PHOSPHATE], the Kd (in [1]; in [2]; in [3]; in [4]; in experiment [5]; on Ephrin type-A receptor 2) was > 30 µM (inactive) each time. Besides, the Kd (in [7]; on Ephrin type-B receptor 2) was > 30 µM (inactive) in each case.

For the compound `COCCNCc1ccc(-c2cc3nccc(Oc4ccc(NC(=S)NC(=O)Cc5ccc(F)cc5)cc4F)c3s2)nc1` [GLESATINIB], the Kd (in [1]; in [2]; in experiment [4]; in experiment [5]; in experiment [6]; on Ephrin type-A receptor 2) was > 30 µM (inactive) each time. Moreover, the Kd (in experiment [7]; on Ephrin type-B receptor 2) was > 30 µM (inactive) in each case.
